Assay results as given in US9278097B2, “Prophylaxis and/or treatment of portal hypertension” (Universitatsklinikum Freiburg, priority 2003, dated 2016).

What was measured:
Format in all cases: in vivo, human
volunteers [1] = test: Sonographic / Doppler sonographic measurement of blood flow through the liver and blood pressure before and 90 minutes after oral Sildenafil; settings: 100 mg oral, n = 5, baseline mean 0.83
volunteers [2] = test: as above; settings: 100 mg oral
Protocol: With ten volunteers, the base values of the blood flow through the liver were measured in the morning before breakfast by means of common sonographic or Doppler sonographic methods. Subsequently, 100 mg Sildenafil were administered orally for each test person. On the average, 90 minutes after administration of this drug, the measurements were repeated.

[3] = system: patient having liver cirrhosis due to a chronic Hepatitis C; test: Invasive measurement of wedged hepatic vein pressure (portal vein pressure) by balloon catheter; settings: one patient, 25 minutes after 10 mg oral; 31 mm Hg prior to administration
Protocol: In a patient having liver cirrhosis due to a chronic Hepatitis C, the wedged hepatic vein pressure, which can be equated with the portal vein pressure, was measured invasively. For this, a balloon catheter was introduced through the Vena jugularis interna into a small hepatic vein under X-ray control. Then, the free hepatic vein pressure may be measured, when the tip of the catheter lies freely in the lumen of the small vein. When the balloon is dilated (the diameter of this small hepatic vein amounts to a few mm), a congestion pressure is built-up at the tip of the catheter, corresponding to the portal vein pressure. In the tested patient, the portal vein pressure prior to the oral administration of a medicament was at 31 mm Hg.

[4] = system: patients, who had a pathological collateral or detour circulation, as originally caused by liver cirrhosis; test: Doppler sonography of flow in the porto-systemic detour circulation before and after oral Vardenafil; settings: two patients, single oral administration of 10 mg
Protocol: Hereby, before and after a single oral administration of 10 mg Vardenafil, the flow in the porto-systemic detour circulation was measured by Doppler-sonography: once in a patient having V. coronaria ventriculi as well as oesophagus varices, and another time in a patient having re-opened V. umbilicalis.

[5] = system: patients having portal hypertension (origin: liver cirrhosis in the status of Child A); test: Doppler sonography of liver haemodynamics before and 1 h after oral Vardenafil, patients; settings: continuous measurement after 10 mg oral, FIG. 4
Protocol: In a further study, 16 healthy volunteers and 15 patients having portal hypertension (origin: liver cirrhosis in the status of Child A) were subjected to the following treatment:
In both the volunteers and the patients with empty stomach (10 hours of food leave), firstly the pulse rate and blood pressure under lying condition and subsequently the parameters of liver haemodynamics were measured by Doppler sonography.
The portal vein pressure is derived from the values obtained from the application of the apparatus Elegra from Siemens having a 3.5 MHz sectorial scanner (K. Haag et al., Am. J. Roentgenol 1999; 172: 631-635). Each measurement was carried out three times in total. The mean value from all three measurements was used. The measurements were carried out in the resting expiratory position. When measuring the flows and the flow volumina, the sonic angle lied below 60°. The sectional plane was basically chosen such that the vessel will be illustrated in its longitudinal route.
Flow measurements in the Vena portae as well as in their intrahepatic main stems. The determination of the flow volume in the portal vein, the Vena lienalis and the Vena mesenterica was carried out by Doppler-sonography, as measured by the options of the apparatus and by calculation through the formula: flow=π·d^2/4·Vmax2·60, wherein d is indicated in cm and Vmax is indicated in cm/s. Vena Lienalis: […]

Q: For `CCCc1nn(C)c2c(=O)[nH]c(-c3cc(S(=O)(=O)N4CCN(C)CC4)ccc3OCC)nc12` [Sildenafil, 1-{[3-(6,7-Dihydro-1-methyl-7-oxo-3-propyl-1H-pyrazolo-[4,3-d]pyrimidin-5-yl)-4-ethoxyphenyl]sulfonyl}-4-methyl-piperazine], which “Portal vein flow, change by Sildenafil (absolute)” value (volunteers [1]) is on record?
A: Its value is “+0.27 l/mm”.

Q: And the “Diameter of V. lienalis, change by Sildenafil (in %)” value (volunteers [2]; 90 minutes, n = 10)?
A: Its value is “+13%”.

Q: What about the “Diameter of portal vein, change by Sildenafil (in %)” value (volunteers [2]; 90 minutes, n = 10) of the same compound?
A: The value was “+12.8%”.

Q: And the “Diastolic blood pressure, change by Sildenafil (in %)” value (volunteers [2]; 90 minutes, n = 10)?
A: The value was −9.5%.

Q: And the “Resistivity Index of A. hepatica communis, change by Sildenafil (in %)” value (volunteers [2]; 90 minutes, n = 10)?
A: The value was “+4.48%”.

Q: What about the “Resistivity Index of Truncus coeliacus, change by Sildenafil (in %)” value (volunteers [2]; 90 minutes, n = 10) of the same compound?
A: The value was −1.5%.

Q: And the “Vmax of V. lienalis, change by Sildenafil (in %)” value (volunteers [2]; 90 minutes, n = 10)?
A: The value was −2.3%.

Q: And the “Vmax of portal vein, change by Sildenafil (in %)” value (volunteers [2]; 90 minutes, n = 10)?
A: The value was −5.3%.

Q: And the “Resistivity Index of A. hepatica communis, change by Sildenafil (absolute)” value (volunteers [2]; 90 minutes, n = 10, baseline mean 0.67)?
A: The value was “+0.03”.

Q: What about the “Resistivity Index of Truncus coeliacus, change by Sildenafil (absolute)” value (volunteers [2]; 90 minutes, n = 10, baseline mean 0.75) of the same compound?
A: The value was −0.115.

Q: And the “Diameter of V. lienalis, change by Sildenafil (absolute)” value (volunteers [2]; 90 minutes, n = 10, baseline mean 7.7)?
A: The value was 1.0 mm.

Q: What about the “Diameter of portal vein, change by Sildenafil (absolute)” value (volunteers [2]; 90 minutes, n = 10, baseline mean 11.7) of the same compound?
A: Its value is 1.5 mm.

Q: And the “Vmax of V. lienalis, change by Sildenafil (absolute)” value (volunteers [2]; 90 minutes, n = 10, baseline mean 20.14)?
A: Its value is -0.47 cm/s.

Q: What about the “Vmax of portal vein, change by Sildenafil (absolute)” value (volunteers [2]; 90 minutes, n = 10, baseline mean 30.5) of the same compound?
A: Its value is -1.63 cm/s.

Q: And the “Diastolic blood pressure, change by Sildenafil (absolute)” value (volunteers [2]; 90 minutes, n = 10, baseline mean 80.5)?
A: Its value is −7.64 mm Hg.

Q: What about the “Systolic blood pressure, change by Sildenafil (in %)” value (volunteers [2]; on average 90 minutes after administration, n = 10) of the same compound?
A: The value was −10.0%.

Q: And the “Systolic blood pressure, change by Sildenafil (absolute)” value (volunteers [2]; on average 90 minutes after administration, n = 10, baseline mean 122)?
A: Its value is −12.21 mm Hg.

Q: For `CCCc1nc(C)c2c(=O)[nH]c(-c3cc(S(=O)(=O)N4CCN(CC)CC4)ccc3OCC)nn12` [Vardenafil], which “Portal vein pressure (wedged hepatic vein pressure)” value [3] is on record?
A: Its value is 26 mm Hg.

Q: And the “Decrease of flow in the V. coronaria ventriculi or in the umbilical vein” value [4]?
A: Its value is “about 30%”.

Q: And the “Time after which increase of flow velocity in the portal vein and portal vein flow is clearly detectable” value ([5]; individual patient (liver cirrhosis), similar in practically all other patients)?
A: The value was 15 min.

Q: What about the “Time at which effect on portal vein flow is most pronounced” value ([5]; individual patient) of the same compound?
A: The value was 20 to 30 min.
